Legend:
[1] = system: canine neutrophil suspension; assay: Neutrophil adhesion test with LPS-activated canine neutrophils (96-well plate, crystal violet, OD620 and microscopy); format: cell-based, dogs; conditions: 0.2 mg/ml lysozyme-chitosan complex and/or 0.4 mg/ml decanoic acid, magnification 40 times, FIG. 3B to 3D
Method: (§1) Neutrophils were collected from blood. Specifically, neutrophils were isolated from whole blood collected from healthy humans or dogs using Polymorphprep (Cosmo Bio). The separated neutrophil samples were centrifuged at 2000 rpm for about 40 minutes, then the supernatant was removed, and the residue was transferred to RPMI (SIGMA) medium supplemented with 10-mass % fetal bovine serum (Tissue Culture Biologicals, USA) and diluted to obtain a cell count of 4×10^6 cells/ml, preparing human and canine neutrophil suspensions, respectively. […] The neutrophil adhesion rate was determined as follows. The value obtained by quantifying the activated neutrophils adhered to the wells in the control without containing lysozyrne-chitosan complex or decanoic acid was set as 100%, and compared with the value obtained by quantifying the activated neutrophils adhered to the wells in the same way for the test substances in each Example and Comparative Example. Neutrophil Adhesion Rate (%)=[Quantitative Value of Adhesive Activated Neutrophils in Each Example and Comparative Example]/[Quantitative Value of Adhesive Activated Neutrophils in Control]×100 In the present invention, the ability to suppress the neutrophil adhesive reaction was evaluated by the following procedure. […]

[2] = system: human neutrophil suspension; assay: Neutrophil adhesion test with LPS-activated human neutrophils (96-well plate, crystal violet, OD620); format: cell-based; conditions: human neutrophils activated with E. coli lipopolysaccharide, 1 hour at 37° C.; control = 100%; FIG. 2A / FIG. 2B
Method: as §1

## CCCCCCCCCC(=O)O [decanoic acid]
[1]
  distribution of adherent neutrophils stained with crystal violet (photomicrograph): widely distributed
[2]
  neutrophil adhesion rate (%) as the concentration of test substance increases: did not decrease
